{"source": "paper PMC12211128", "about": "“Safety, tolerability, pharmacokinetic and pharmacodynamic effects of the muscarinic M1 positive allosteric modulator VU0467319 for Alzheimer’s disease: a single ascending-dose study in healthy participants” (Alzheimer's Research & Therapy, 2025)", "origin": "cited, not measured here", "key": {"[1]": {"test_system": "Parkinson's disease", "design": "method as in PMID 39761063", "conditions": "cited from earlier work"}, "[2]": {"test_system": "M1 mAChR", "conditions": "cited from earlier work"}}, "data": [{"smiles": "Cc1c(Cc2ccc(-n3cccn3)cc2)cc2c(c1F)CN([C@H]1COCC[C@@H]1O)C2=O", "note": "[TAK-071]", "values": [{"measurement": "cognitive performance in Parkinson's disease", "setting": "[1]", "value": "produced improvement in cognitive performance"}]}, {"smiles": "COc1ccc(Cn2cc(C(=O)O)c(=O)c3ccccc32)cc1", "note": "[BQCA, benzyl quinolone carboxylic acid, reference compound]", "values": [{"measurement": "agonist and PAM properties at M1", "setting": "[2]", "value": "both agonist and PAM properties"}]}]}
